According to ChEMBL document CHEMBL1150553, “Diaryl phosphate derivatives act as pro-drugs of AZT with reduced cytotoxicity compared to the parent nucleoside” (Bioorg Med Chem Lett, 1994):

Legend:
CCRF-CEM [1] = experiment: In vitro inhibitory activity against replication of HIV-2 in human lymphocyte thymidine kinase deficient CEM cells; type: functional, cell-based
MT4 [2] = experiment: In vitro inhibitory activity against replication of HIV-1 in human lymphocyte MT-4 cells; type: functional, cell-based
MT4 [3] = experiment: In vitro inhibitory activity against replication of HIV-2 in human lymphocyte MT-4 cells; type: functional, cell-based
CCRF-CEM [4] = experiment: In vitro inhibitory activity against replication of HIV-1 in human lymphocyte CEM cells; type: functional, cell-based
CCRF-CEM [5] = experiment: In vitro inhibitory activity against replication of HIV-2 in human lymphocyte CEM cells; type: functional, cell-based
MT4 [6] = experiment: Cytotoxicity against human lymphocyte MT-4 cells; type: functional

With `Cc1cn(C2CC(N=[N+]=[N-])C(COP(=O)(Oc3ccccc3[N+](=O)[O-])Oc3ccccc3[N+](=O)[O-])O2)c(=O)[nH]c1=O` (configuration not stated) the EC50 (CCRF-CEM [1]) was > 100000 nM, the EC50 (MT4 [2]) was 12.1 nM and the EC50 (MT4 [3]) was 14 nM. It also gave an EC50 (CCRF-CEM [4]) of 5.3 nM, an EC50 (CCRF-CEM [5]) of 6.2 nM and a CC50 (MT4 [6]) of 42000 nM.
`Cc1cn(C2CC(N=[N+]=[N-])C(COP(=O)(Oc3cccc([N+](=O)[O-])c3)Oc3cccc([N+](=O)[O-])c3)O2)c(=O)[nH]c1=O` (configuration not stated) was tested, and the EC50 (CCRF-CEM [1]) was 85000 nM, the EC50 (MT4 [2]) was 2.5 nM and the EC50 (MT4 [3]) was 3.1 nM. It also gave an EC50 (CCRF-CEM [4]) of 3.8 nM, an EC50 (CCRF-CEM [5]) of 3.8 nM and a CC50 (MT4 [6]) of 36000 nM.
Work on `Cc1cn(C2CC(N=[N+]=[N-])C(COP(=O)(Oc3ccc([N+](=O)[O-])cc3)Oc3ccc([N+](=O)[O-])cc3)O2)c(=O)[nH]c1=O` (configuration not stated) yielded an EC50 (CCRF-CEM [1]) of 50000 nM, an EC50 (MT4 [2]) of 13 nM and an EC50 (MT4 [3]) of 10 nM. For the same molecule, the EC50 (CCRF-CEM [4]) was 9 nM, the EC50 (CCRF-CEM [5]) was 15 nM and the CC50 (MT4 [6]) was 50000 nM.
For `Cc1cn([C@H]2C[C@H](N=[N+]=[N-])[C@@H](CO)O2)c(=O)[nH]c1=O` [ZIDOVUDINE], the EC50 (CCRF-CEM [1]) was > 100000 nM, the EC50 (MT4 [2]) was 2.5 nM and the EC50 (CCRF-CEM [5]) was 3.5 nM. It also gave a CC50 (MT4 [6]) of 6000 nM.
